Data taken from patent publication US20130177904A1, “ARNT ISOFORM 3 AS A PREDICTOR OF AMINOFLAVONE RESPONSIVENESS IN CANCER CELLS” (UNIVERSITY OF MARYLAND, BALTIMORE, priority 2010, published 2013).
pIC50: −log10 of the molar value.

Legend:
[1] = system: MDA-MBA-468; experiment: Cell Death Detection ELISA PLUS apoptosis assay; assay type: cell-based, Human; conditions: MDA-MBA-468, 48 hours post-AF treatment, 100 nM AF per legend FIG. 2A
Experimental: (§1) To determine the induction of apoptosis, the Cell Death Detection ELISA^PLUS Assay (Roche Cat. No. 11774425001), which determines the degree of cytoplasmic mono- and oligonucleosomes, was employed as described by the manufacturer. […] Cells were then concentrated by centrifugation at 200 g for 10 min at room temperature and the supernatant was discarded. Cells were lysed, and cytoplasmic fractions containing fragmented DNA were transferred to streptavidin-coated microtiter plates preincubated with a biotinylated monoclonal anti-histone antibody. The amount of fragmented nucleosomes bound to anti-histone antibody was evaluated by peroxidase-conjugated monoclonal antibody using ABTS (2,2-azino-di[3-ethylbenzthiazoline sulfonate-6-diammonium salt]) as a substrate, and read in a microplate reader at 405 nm. Non-treated cells were employed as controls.

[2] = system: MCF7; experiment: Cell Death Detection ELISA PLUS apoptosis assay; assay type: cell-based, Human
Experimental: as §1

[3] = system: T47D; experiment: Cell Death Detection ELISA PLUS apoptosis assay; assay type: cell-based, Human
Experimental: as §1

[4] = system: TK10; conditions: TK10 renal cell line, NIH dose response data; cited from earlier work
[5] = system: K562; conditions: K562 leukemia cell line, NIH dose response data; cited from earlier work
[6] = system: SW620; conditions: SW620 colon cell line, NIH dose response data; cited from earlier work
[7] = system: CAKi1; conditions: CAKi1 renal cell line, NIH dose response data; cited from earlier work
[8] = system: A496; conditions: A496 renal cell line, NIH dose response data; cited from earlier work
[9] = system: U251; conditions: U251 CNS cancer cell line, NIH dose response data; cited from earlier work
[10] = system: MDA-MB-468; experiment: MTS cell proliferation assay; assay type: cell-based; conditions: Homo sapiens, 120 h; MDA-MB-468 (ER−), 5 days after treatment, estimated from graph FIG. 1; read-out: IC50 (50% Inhibitory Concentration)
Experimental: (§2) The CellTiter 96 Aqueous MTS Reagent (Promega, Cat. G5421 WI) was employed to measure the effects of AF on cell proliferation. Briefly, cells in 100 μl were seeded in 96-well plates (Nunc) at a density of 2,000 cells/well and allowed to attach overnight. AF was added the following day in final concentrations of 0.1 nM to 100 μM in replicas of 8. Proliferation was measured 5 days later by adding 20 μl MTS reagent to the plates and incubation at 37° C. for 2 hours. Viable cells converted the MTS reagent to a formazan product, which was measured 4 hours later at 490 nm using a Synergy HT Multi-Detection Microplate Reader, and KC4 software (Bio-Tek). Cell proliferation was compared to DMSO treated controls as a percentage, against the background growth at the time of AF treatment.
(§3) For IC50 (50% Inhibiting Concentration) determination, vehicle treated cells were deemed as 100% cell growth. Percent growth inhibition was calculated by dividing AF treated MTS values by MTS values of vehicle treated cells, subtracting background (media alone without cells) from both prior to calculations. […] The data as calculated is more representative of percent cell survival and therefore defined as Inhibitory Concentrations (IC50) rather than GI50 values. That said, they provide for a highly accurate means for comparing effects of AF. IC50 values were estimated directly from the graph (FIG. 1), though model fitting employing BiodataFit 1.02 (Chang Biosciences, found on the world wide web at changbioscience.com/stat/ec50ht.html) provided for highly similar results with model fitting correlations of 0.85 or above and generally small SEE values (standard error of the IC50 estimate).

[11] = system: MCF7; experiment: MTS cell proliferation assay; assay type: cell-based; conditions: Homo sapiens, 120 h; MCF7 (ER+), 5 days after treatment, estimated from graph FIG. 1; read-out: IC50 (50% Inhibitory Concentration)
Experimental: as §2, §3

[12] = system: T47D; experiment: MTS cell proliferation assay; assay type: cell-based; conditions: Homo sapiens, 120 h; T47D (ER+), 5 days after treatment, estimated from graph FIG. 1; read-out: IC50 (50% Inhibitory Concentration)
Experimental: as §2, §3

[13] = system: MDA-MB-231; experiment: MTS cell proliferation assay; assay type: cell-based; conditions: Homo sapiens, 120 h; MDA-MB-231 (ER−), 5 days after treatment, estimated from graph FIG. 1; read-out: IC50 (50% Inhibitory Concentration)
Experimental: as §2, §3

[14] = system: Hs578t; experiment: MTS cell proliferation assay; assay type: cell-based; conditions: Homo sapiens, Hs-578T, 120 h; Hs578t (ER−), 5 days after treatment, estimated from graph FIG. 1; read-out: IC50 (50% Inhibitory Concentration)
Experimental: as §2, §3

[15] = system: caspases 3/7 in MCF7; experiment: Caspase Glo-3/7 Assay; assay type: cell-based, Human; conditions: MCF7, relative to vehicle treated cells, FIG. 2C
Experimental: (§4) The Caspase Glo-3/7 Assay (Promega) was used to measure the combined activities of caspases-3 and -7. In brief, cells were seeded in a white-walled 96-well plate (Nunc) at a density of 2,000 cells/well and allowed to attach overnight. AF was added the following day in final concentrations of 0.1 nM to 100 μM in replicas of 8. Caspase activity was measured 5 days later by adding the Caspase Glo-3/7 reagent to the plate and incubating for another 2 hours. Caspase cleavage results in the release a substrate for luciferase that was measured using a LumiCount luminometer (Packard). Caspase activity levels were normalized to the amount of viable cells, determined by the CellTiter-Glo Luminescent Cell Viability Assay (Promega) performed in parallel to the caspase assay. Data analysis to obtain the mean and standard error as well as graphing employed Excel® (Microsoft Corporation).

[16] = system: caspases 3/7 in MDA-MBA-468; experiment: Caspase Glo-3/7 Assay; assay type: cell-based, Human; conditions: MDA-MBA-468, relative to vehicle treated cells, FIG. 2C
Experimental: as §4

[17] = system: caspases 3/7 in MDA-MB-231; experiment: Caspase Glo-3/7 Assay; assay type: cell-based, Human; conditions: MDA-MB-231, relative to vehicle treated cells, FIG. 2C
Experimental: as §4

[18] = system: caspases 3/7 in T47D; experiment: Caspase Glo-3/7 Assay; assay type: cell-based, Human; conditions: relative to vehicle treated cells, FIG. 2C
Experimental: as §4

SMILES: Cc1c(F)c(N)c2c(=O)cc(-c3ccc(N)c(F)c3)oc2c1F [AF, 5-amino-2-(4-amino-3-fluorophenyl)-6,8-difluoro-7-methylchromen-4-one]
- induction of apoptosis [1]: prominent induction of apoptosis
- increase (cytoplasmic nucleosomes; printed as increase in inhibition of cell proliferation) ([2]; 1 μM AF, MCF7, FIG. 2A): > 4.5 fold
- induction of apoptosis ([2]; MCF7, 48 hours post-AF treatment, 100 nM AF per legend FIG. 2A): prominent induction of apoptosis
- increase (cytoplasmic nucleosomes; printed as increase in inhibition of cell proliferation) ([3]; 1 μM AF, FIG. 2A): > 4.5 fold
- induction of apoptosis ([3]; 48 hours post-AF treatment, 100 nM AF per legend FIG. 2A): prominent induction of apoptosis
- AF sensitivity [4]: AF sensitive
- AF sensitivity [5]: AF sensitive
- AF sensitivity [6]: AF sensitive
- AF sensitivity [7]: AF sensitive
- AF sensitivity [8]: AF sensitive
- AF sensitivity [9]: some degree of sensitivity
- pIC50 [10]: 8.40
- pIC50 [11]: 7.15
- pIC50 [12]: 6.96
- pIC50 [13]: 4.15
- pIC50 [14]: 4.70
- induction of caspases 3/7 (combined activity) [15]: not activated
- induction of caspases 3/7 (combined activity) [16]: marked induction
- Caspases 3 and 7 activity [17]: do not
- induction of caspases 3/7 (combined activity) [18]: marked induction
